Measured values published in patent publication US9371365B2, “Modified compstatin with peptide backbone and C-terminal modifications” (The Trustees of the University of Pennsylvania, priority 2009, dated 2016).
Like-named read-outs stand apart in the source and are kept apart here. Bridge positions count the residues as written; N and C are the ends. Square brackets hold non-standard residues; d marks the D form. Peptide text beside a SMILES is read from it. Trp(1-Me) = Cn1cc(C[C@H](N)C(=O)O)c2ccccc21; NMeY = CN[C@@H](Cc1ccc(O)cc1)C(=O)O; NMeV = CN[C@H](C(=O)O)C(C)C; NMeA = CN[C@@H](C)C(=O)O; Nle = CCCC[C@H](N)C(=O)O; Sar = CNCC(=O)O

Experiments:
[1] = tested on: classical pathway of complement; assay: Inhibition of classical pathway complement activation, ELISA in human serum; type: biochemical; details: for inhibition of complement activation, result in words: ELISA, N-methylation scan; for IC50: read-out: IC50; for rP: relative potency compared to peptide 14
Procedure: The ability of the compstatin analogs to inhibit the activation of the classical pathway of complement was assessed by ELISA (Mallik et al., 2005, J Med Chem 48:274-86). In brief, complement was activated in human serum using an antigen-antibody complex in the presence or absence of compstatin analogs, and the deposition of C3 fragments on the plate surface was detected using an HRP-conjugated polyclonal anti-C3 antibody. […] The percent inhibition was plotted against the peptide concentration, and the resulting data set was fitted to the logistic dose-response function using Origin 7.0 software. IC50 values were obtained from the fitted parameters that produced the lowest χ^2 value. Each analog was assayed at least three to seven times.
The ability of the compstatin analogs to inhibit the activation of the classical pathway of complement was assessed by ELISA as described in Example 1. Each conjugate was assayed at least three times.

[2] = biological target: T1, C3b (Homo sapiens, UniProt P01024); assay: SPR analysis of binding kinetics to immobilized C3b; details: for kd: 25° C., PBS-T; for kon: pH 7.4, read-out: ka; for rKD SPR / rka / rkd: relative to peptide 14
T1 construct: biotin (chemical biotinylation of C3b)
T1 sequence (P01024 23-667 limits assumed): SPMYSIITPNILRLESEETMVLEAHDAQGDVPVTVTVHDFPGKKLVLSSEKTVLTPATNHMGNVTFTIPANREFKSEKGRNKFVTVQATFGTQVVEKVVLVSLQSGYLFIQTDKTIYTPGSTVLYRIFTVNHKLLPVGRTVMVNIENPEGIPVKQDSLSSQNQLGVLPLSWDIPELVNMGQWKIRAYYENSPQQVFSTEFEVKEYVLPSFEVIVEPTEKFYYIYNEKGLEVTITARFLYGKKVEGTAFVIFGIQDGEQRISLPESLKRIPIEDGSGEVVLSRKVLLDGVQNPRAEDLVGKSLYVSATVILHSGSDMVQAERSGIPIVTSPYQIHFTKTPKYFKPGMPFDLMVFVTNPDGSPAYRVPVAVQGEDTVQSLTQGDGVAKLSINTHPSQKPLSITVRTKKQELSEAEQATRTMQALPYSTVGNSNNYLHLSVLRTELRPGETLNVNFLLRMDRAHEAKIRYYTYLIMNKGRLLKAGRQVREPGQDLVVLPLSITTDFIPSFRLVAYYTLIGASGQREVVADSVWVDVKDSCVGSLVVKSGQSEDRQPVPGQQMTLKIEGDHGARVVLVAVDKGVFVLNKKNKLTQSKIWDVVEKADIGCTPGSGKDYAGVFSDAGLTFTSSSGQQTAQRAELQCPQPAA
T1 sequence (P01024 749-1663 limits assumed): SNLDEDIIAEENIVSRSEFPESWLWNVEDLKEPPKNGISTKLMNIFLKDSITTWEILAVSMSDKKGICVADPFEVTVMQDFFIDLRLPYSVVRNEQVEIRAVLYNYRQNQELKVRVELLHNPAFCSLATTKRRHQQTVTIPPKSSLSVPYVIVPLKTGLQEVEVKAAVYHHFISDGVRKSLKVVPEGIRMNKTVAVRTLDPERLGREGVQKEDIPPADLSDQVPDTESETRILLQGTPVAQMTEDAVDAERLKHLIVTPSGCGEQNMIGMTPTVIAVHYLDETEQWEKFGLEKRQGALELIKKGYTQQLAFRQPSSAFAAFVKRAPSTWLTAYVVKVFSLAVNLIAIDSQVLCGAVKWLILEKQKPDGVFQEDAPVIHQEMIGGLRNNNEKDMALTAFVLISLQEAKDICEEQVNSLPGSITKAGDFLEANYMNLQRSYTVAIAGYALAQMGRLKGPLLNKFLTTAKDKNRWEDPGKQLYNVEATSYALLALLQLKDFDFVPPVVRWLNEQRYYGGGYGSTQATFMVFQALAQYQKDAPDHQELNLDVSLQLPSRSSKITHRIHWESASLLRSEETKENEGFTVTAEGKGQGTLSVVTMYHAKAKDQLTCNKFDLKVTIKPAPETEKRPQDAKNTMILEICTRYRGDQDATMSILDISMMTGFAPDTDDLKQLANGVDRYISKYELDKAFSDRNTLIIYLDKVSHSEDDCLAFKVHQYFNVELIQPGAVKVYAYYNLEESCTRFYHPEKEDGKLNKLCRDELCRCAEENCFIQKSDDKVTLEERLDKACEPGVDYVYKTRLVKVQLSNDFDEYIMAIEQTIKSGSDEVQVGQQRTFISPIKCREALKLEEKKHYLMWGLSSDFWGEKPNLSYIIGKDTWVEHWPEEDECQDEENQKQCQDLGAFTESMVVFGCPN
Procedure: (§1) The kinetics of the interaction between C3b and each compstatin analog was analyzed by SPR on a Biacore 3000 instrument (GE Healthcare Corp., Piscataway, N.J.) at 25° C. using PBS-T (10 mM sodium phosphate, 150 mM NaCl, 0.005% Tween-20, pH 7.4) as the running buffer, as described above. In brief, biotinylated C3b (30 μg/mL) was immobilized on a streptavidin-coated sensor chip, and a two-fold serial dilution series (1 μM-500 pM) of each analog was injected for 2 min at 30 μl/min, with a dissociation phase of 5-10 min. Peptide [Trp(Me)^4]-Ac-compstatin was included in each experimental series as an internal control and reference. Data analysis was performed using Scrubber (BioLogic Software, Campbell, Australia). The signals from an untreated flow cell and an ensemble of buffer blank injections were subtracted to correct for buffer effects and injection artifacts. Processed biosensor data were globally fitted to a 1:1 Langmuir binding model, and the equilibrium dissociation constant (KD) was calculated from the equation KD=kd/ka. Peptide solutions were injected in duplicate in every experiment, and each screening assay was performed at least twice.
as §1, with “in Example 1.” for “above.”, “μg/ml)” for “μg/mL)”, “Peptide [Trp(Me)^4]-Ac-compstatin was included in each experimental series as an internal control and reference.” left out

[3] = biological target: T2, C3 (Homo sapiens, UniProt P01024); assay: ITC analysis of binding to C3; details: for ΔH / −TΔS / ΔG: ITC; for ΔG: ΔG=ΔH−TΔS; for rKD ITC / ΔΔG / ΔΔH / −TΔΔS: relative to peptide 14
T2 construct: C3 was purified from fresh human plasma; from tissue; host or cells: fresh human plasma (blood bank of the Hospital of the University of Pennsylvania)
T2 sequence (P01024 23-667 limits assumed): as the sequence (P01024 23-667 limits assumed) above
T2 sequence (P01024 672-1663 limits assumed): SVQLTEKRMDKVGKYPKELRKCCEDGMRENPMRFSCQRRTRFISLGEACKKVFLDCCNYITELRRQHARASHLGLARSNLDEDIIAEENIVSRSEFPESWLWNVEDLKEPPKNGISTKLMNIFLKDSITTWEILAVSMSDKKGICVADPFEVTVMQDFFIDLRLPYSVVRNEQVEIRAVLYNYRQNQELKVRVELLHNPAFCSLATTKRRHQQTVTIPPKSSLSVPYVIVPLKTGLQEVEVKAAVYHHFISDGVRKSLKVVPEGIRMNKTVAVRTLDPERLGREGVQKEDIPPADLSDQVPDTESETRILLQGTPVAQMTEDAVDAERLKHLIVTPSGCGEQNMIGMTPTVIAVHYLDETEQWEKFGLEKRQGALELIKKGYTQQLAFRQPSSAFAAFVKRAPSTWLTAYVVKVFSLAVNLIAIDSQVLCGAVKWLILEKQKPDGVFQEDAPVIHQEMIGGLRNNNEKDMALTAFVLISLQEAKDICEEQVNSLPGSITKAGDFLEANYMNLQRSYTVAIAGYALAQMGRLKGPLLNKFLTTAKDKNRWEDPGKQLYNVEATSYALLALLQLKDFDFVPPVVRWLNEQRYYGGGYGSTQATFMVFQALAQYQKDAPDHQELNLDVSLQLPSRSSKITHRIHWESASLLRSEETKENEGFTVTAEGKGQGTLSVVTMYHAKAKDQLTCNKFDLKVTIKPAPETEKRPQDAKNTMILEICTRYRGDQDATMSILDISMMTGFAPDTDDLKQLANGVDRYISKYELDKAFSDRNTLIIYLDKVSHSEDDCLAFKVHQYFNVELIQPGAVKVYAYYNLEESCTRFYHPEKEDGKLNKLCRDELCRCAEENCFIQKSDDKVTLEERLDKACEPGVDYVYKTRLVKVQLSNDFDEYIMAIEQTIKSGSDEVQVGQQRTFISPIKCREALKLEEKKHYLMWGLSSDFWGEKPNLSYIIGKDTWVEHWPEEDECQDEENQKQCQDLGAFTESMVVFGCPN
Procedure: C3 was purified from fresh human plasma obtained from the blood bank of the Hospital of the University of Pennsylvania. In brief, the plasma was fractionated with 15% (w/v) PEG 3350, and the pellet was resuspended in 20 mM phosphate buffer, pH 7.8, and then subjected to anion-exchange chromatography on a DEAE-HR 40 column (50×5 cm; Millipore Inc., Billerica, Mass.) with the same buffer. Proteins were eluted with 6 L of a linear gradient (15-70%) of 20 mM phosphate buffer, pH 7.8, containing 500 mM NaCl. C3 was further purified on a size-exclusion Superdex 200 26/60 column (Amersham Biosciences) and a Mono S column (Amersham Biosciences) to separate C3 from C3(H2O).
All titrations were performed in PBS (10 mM phosphate buffer with 150 mM NaCl, pH 7.4) at 25° C. using multiple peptide injections of 2-7 μL each. The raw isotherms were corrected for the heats of dilution by subtracting the isotherms representing peptide injections into the buffer. The resulting isotherms were fitted to a single site of sites models using Origin 7.0 software, and the model that produced the lowest χ^2 value was deemed to be appropriate for the respective data set. The Gibbs free energy was calculated as ΔG=ΔH−TΔS. Each experiment was repeated at least twice.

With “Ac-I[C(NMe)VYQDWGAHRC]T-NH2 (Ac-IC[NMeV]YQDWGAHRCT-NH2; disulfide 2-12; SMILES CC[C@H](C)[C@H](NC(C)=O)C(=O)N[C@H]1CSSC[C@@H](C(=O)N[C@H](C(N)=O)[C@@H](C)O)NC(=O)[C@H](CCCNC(=N)N)NC(=O)[C@H](Cc2c[nH]cn2)NC(=O)[C@H](C)NC(=O)CNC(=O)[C@H](Cc2c[nH]c3ccccc23)NC(=O)[C@H](CC(=O)O)NC(=O)[C@H](CCC(N)=O)NC(=O)[C@H](Cc2ccc(O)cc2)NC(=O)[C@H](C(C)C)N(C)C1=O) [Peptide 3]” the “inhibition of complement activation, result in words” value (shortened to “inhibition of complement activation”) [1] was “completely inactive”.

For `CC[C@H](C)[C@H](NC(C)=O)C(=O)N[C@H]1CSSC[C@@H](C(=O)N[C@@H](CC(C)C)C(N)=O)NC(=O)[C@H](CCCNC(=N)N)NC(=O)[C@H](Cc2c[nH]cn2)NC(=O)[C@H](C)NC(=O)CN(C)C(=O)[C@H](Cc2c[nH]c3ccccc23)NC(=O)[C@H](CC(=O)O)NC(=O)[C@H](CCC(N)=O)NC(=O)[C@H](Cc2cn(C)c3ccccc23)NC(=O)[C@H](C(C)C)NC1=O` [Peptide 18, Ac−Ic[CV(^1−MeW)QDW(^N−MeG)AHRC]L-NH2] (Ac-ICV[Trp(1-Me)]QDW[Sar]AHRCL-NH2; disulfide 2-12), the kd ([2]; SPR) was 6.0 10^−3/s, the kon [2] was 1.3e+06 M⁻¹ s⁻¹ and the “rKD SPR” value [2] was 2.6. The rka [2] was 1.3, the rkd [2] was 1.9 and the IC50 ([1]; Table 1-2) was 108 nM. The IC50 ([1]; exemplary analogs table) was 108 nM and the rP [1] was 1.9.

In the case of `CC[C@H](C)[C@H](NC(C)=O)C(=O)N[C@H]1CSSC[C@@H](C(=O)N(C)[C@H](C(N)=O)[C@@H](C)CC)NC(=O)[C@H](CCCNC(=N)N)NC(=O)[C@H](Cc2c[nH]cn2)NC(=O)[C@H](C)NC(=O)CN(C)C(=O)[C@H](Cc2c[nH]c3ccccc23)NC(=O)[C@H](CC(=O)O)NC(=O)[C@H](CCC(N)=O)NC(=O)[C@H](Cc2cn(C)c3ccccc23)NC(=O)[C@H](C(C)C)NC1=O` [Peptide 21, Ac−Ic[CV(^1−MeW)QDW(^N−MeG)AHRC](^N−MeI)-NH2], the “fold stronger affinity than peptide 14” value ([2]; SPR) is reported as “more than 5 fold”, the kd ([2]; SPR) is reported as 3.5 10^−3/s and the kon [2] is reported as 1.5e+06 M⁻¹ s⁻¹. For the same compound, the “rKD SPR” value [2] was 5.2, the rka [2] was 1.5 and the rkd [2] was 3.2. For the same compound, the IC50 ([1]; Table 1-2) was 62 nM, the IC50 ([1]; exemplary analogs table) was 62 nM and the rP [1] was 3.3. The ΔH [3] was -17.1 kcal/mol, the “−TΔS” value [3] was 5.7 kcal/mol and the ΔG [3] was -11.4 kcal/mol. For the same compound, the “rKD ITC” value [3] was 3.3, the ΔΔG [3] was -0.7 kcal/mol and the ΔΔH [3] was 0.5 kcal/mol. The “−TΔΔS” value [3] was -1.3 kcal/mol.

In the case of `CC[C@H](C)[C@H](NC(=O)[C@@H]1CSSC[C@H](NC(=O)[C@@H](NC(C)=O)[C@@H](C)CC)C(=O)N[C@@H](C(C)C)C(=O)N[C@@H](Cc2cn(C)c3ccccc23)C(=O)N[C@@H](CCC(N)=O)C(=O)N[C@@H](CC(=O)O)C(=O)N[C@@H](Cc2c[nH]c3ccccc23)C(=O)NCC(=O)N[C@@H](C)C(=O)N[C@@H](Cc2c[nH]cn2)C(=O)N[C@@H](CCCNC(=N)N)C(=O)N1)C(N)=O` [Peptide 16], the kd ([2]; SPR) is reported as 11.0 10^−3/s, the kon [2] is reported as 1e+06 M⁻¹ s⁻¹ and the “rKD SPR” value [2] is reported as 1.1. The rka [2] was 1.0, the rkd [2] was 1.0 and the ΔH [3] was -16.6 kcal/mol. The “−TΔS” value [3] was 5.7 kcal/mol, the ΔG [3] was -10.9 kcal/mol and the “rKD ITC” value [3] was 1.2. For the same compound, the ΔΔG [3] was -0.2 kcal/mol, the ΔΔH [3] was 1.0 kcal/mol and the “−TΔΔS” value [3] was -1.3 kcal/mol.

With “Ac-I[CVYQDWG(NMe)AHRC]T-NH2 (Ac-ICVYQDWG[NMeA]HRCT-NH2; disulfide 2-12; SMILES CC[C@H](C)[C@H](NC(C)=O)C(=O)N[C@H]1CSSC[C@@H](C(=O)N[C@H](C(N)=O)[C@@H](C)O)NC(=O)[C@H](CCCNC(=N)N)NC(=O)[C@H](Cc2c[nH]cn2)NC(=O)[C@H](C)N(C)C(=O)CNC(=O)[C@H](Cc2c[nH]c3ccccc23)NC(=O)[C@H](CC(=O)O)NC(=O)[C@H](CCC(N)=O)NC(=O)[C@H](Cc2ccc(O)cc2)NC(=O)[C@H](C(C)C)NC1=O) [Peptide 9]” the “inhibition of complement activation” value [1] was “completely inactive”.

`CCCC[C@H](NC(=O)[C@@H]1CSSC[C@H](NC(=O)[C@@H](NC(C)=O)[C@@H](C)CC)C(=O)N[C@@H](C(C)C)C(=O)N[C@@H](Cc2cn(C)c3ccccc23)C(=O)N[C@@H](CCC(N)=O)C(=O)N[C@@H](CC(=O)O)C(=O)N[C@@H](Cc2c[nH]c3ccccc23)C(=O)N(C)CC(=O)N[C@@H](C)C(=O)N[C@@H](Cc2c[nH]cn2)C(=O)N[C@@H](CCCNC(=N)N)C(=O)N1)C(N)=O` [Peptide 19, Ac−Ic[CV(^1−MeW)QDW(^N−MeG)AHRC](Nle)-NH2] (Ac-ICV[Trp(1-Me)]QDW[Sar]AHRC[Nle]-NH2; disulfide 2-12) was tested, and the kd ([2]; SPR) was 6.6 10^−3/s, the kon [2] was 1.5e+06 M⁻¹ s⁻¹ and the “rKD SPR” value [2] was 2.7. The rka [2] was 1.5, the rkd [2] was 1.7 and the IC50 ([1]; Table 1-2) was 109 nM. The IC50 ([1]; exemplary analogs table) was 109 nM and the rP [1] was 1.9.

With “Ac-I[CV(NMe)YQDWGAHRC]T-NH2 (Ac-ICV[NMeY]QDWGAHRCT-NH2; disulfide 2-12; SMILES CC[C@H](C)[C@H](NC(C)=O)C(=O)N[C@H]1CSSC[C@@H](C(=O)N[C@H](C(N)=O)[C@@H](C)O)NC(=O)[C@H](CCCNC(=N)N)NC(=O)[C@H](Cc2c[nH]cn2)NC(=O)[C@H](C)NC(=O)CNC(=O)[C@H](Cc2c[nH]c3ccccc23)NC(=O)[C@H](CC(=O)O)NC(=O)[C@H](CCC(N)=O)NC(=O)[C@H](Cc2ccc(O)cc2)N(C)C(=O)[C@H](C(C)C)NC1=O) [Peptide 4]” the “inhibition of complement activation” value [1] was “completely inactive”.
